Reference: paper PMC6063323, “Synthesis, radiosynthesis, in vitro and first in vivo evaluation of a new matrix metalloproteinase inhibitor based on γ-fluorinated α-sulfonylaminohydroxamic acid” (EJNMMI Radiopharmacy and Chemistry, 2018)
Read-outs that look alike come from different tables or passages of the source.

Tests used:
[1] = test system: MMP-2; details: cited from earlier work
[2] = test system: MMP-9; details: cited from earlier work
[3] = biological target: T1, activated MMP-2 (Homo sapiens, UniProt P08253); experiment: fluorometric in vitro MMP-2 inhibition assay; type: biochemical; details: SD from three independent experiments; enzyme 2 nM, 37 °C, 30 min preincubation
T1 sequence (P08253 110-660): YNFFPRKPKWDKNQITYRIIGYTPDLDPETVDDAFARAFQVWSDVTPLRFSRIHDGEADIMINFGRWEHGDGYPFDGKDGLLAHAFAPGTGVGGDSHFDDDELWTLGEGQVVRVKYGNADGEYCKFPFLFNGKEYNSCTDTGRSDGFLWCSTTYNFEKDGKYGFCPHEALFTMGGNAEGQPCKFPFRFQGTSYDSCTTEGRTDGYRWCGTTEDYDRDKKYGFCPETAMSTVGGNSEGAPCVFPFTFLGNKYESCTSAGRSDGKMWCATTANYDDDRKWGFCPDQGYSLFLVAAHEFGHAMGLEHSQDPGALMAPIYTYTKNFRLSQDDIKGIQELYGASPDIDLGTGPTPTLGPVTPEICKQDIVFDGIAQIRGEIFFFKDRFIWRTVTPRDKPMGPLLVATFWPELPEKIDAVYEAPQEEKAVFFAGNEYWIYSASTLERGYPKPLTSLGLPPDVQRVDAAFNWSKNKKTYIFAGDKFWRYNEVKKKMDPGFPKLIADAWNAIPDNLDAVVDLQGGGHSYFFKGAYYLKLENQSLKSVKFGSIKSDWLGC
Protocol: (§1) The inhibition potencies of (R)-9a and (S)-9a against activated MMP-2 and -9 were assayed using the synthetic fluorometric substrate (7-methoxycoumarin-4-yl)acetyl-Pro-Leu-Gly-Leu-(3-(2,4-dinitrophenyl)-L-2,3-diaminopropionyl)Ala-Arg-NH2 (R&D Systems) as described previously (Huang et al. [1997]). Briefly, MMP-2 and -9 (each at 2 nM) and test compounds at varying concentrations (10 pM to 1 mM) in Tris (50 mM), pH 7.5, containing NaCl (0.2 M), CaCl2 (5 mM), ZnSO4 (20 μM), and 0.05% Brij 35 were preincubated at 37 °C for 30 min. An aliquot of substrate (10 μL of a 50 μM solution) was added to the enzyme inhibitor mixture (90 μL), and the fluorescence changes were monitored using a TriStar2 Multimode Reader LB 942, (Berthold) with excitation and emission wavelengths of 340 and 405 nm, respectively. Reaction rates were measured from the initial 10 min and plotted as a function of inhibitor concentration. From the resulting inhibition curves, the IC50 values were calculated by nonlinear regression analysis using the Grace 5.1.8 software (Linux).
(§2) The MMP inhibition potencies of the hydroxamic acids (R)-9a and (S)-9a (Fig. 2) against MMP-2 and -9 were measured by fluorometric in vitro inhibition assays, following the previously described procedure (Huang et al. [1997]).

[4] = biological target: activated MMP-9 (Homo sapiens, UniProt P14780); experiment: fluorometric in vitro MMP-9 inhibition assay; type: biochemical; details: SD from three independent experiments; enzyme 2 nM, 37 °C, 30 min preincubation
Chain of activated MMP-9 (P14780 107-707 limits assumed): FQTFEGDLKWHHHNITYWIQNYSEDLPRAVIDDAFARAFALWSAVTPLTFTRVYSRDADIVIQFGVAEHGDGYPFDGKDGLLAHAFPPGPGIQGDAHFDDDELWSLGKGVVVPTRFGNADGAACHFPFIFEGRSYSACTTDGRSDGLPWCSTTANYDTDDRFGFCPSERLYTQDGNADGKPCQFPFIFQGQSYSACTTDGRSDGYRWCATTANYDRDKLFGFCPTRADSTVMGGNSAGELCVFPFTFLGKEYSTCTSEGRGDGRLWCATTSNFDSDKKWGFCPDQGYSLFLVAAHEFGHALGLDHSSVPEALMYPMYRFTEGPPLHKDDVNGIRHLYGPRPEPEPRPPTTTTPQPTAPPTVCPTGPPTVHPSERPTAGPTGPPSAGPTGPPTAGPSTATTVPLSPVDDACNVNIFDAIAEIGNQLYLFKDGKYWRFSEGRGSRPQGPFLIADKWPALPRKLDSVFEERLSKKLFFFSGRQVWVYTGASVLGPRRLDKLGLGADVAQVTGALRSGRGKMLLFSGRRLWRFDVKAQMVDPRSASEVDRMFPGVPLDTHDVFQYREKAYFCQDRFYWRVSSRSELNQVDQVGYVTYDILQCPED
Protocol: as §1, §2

[5] = water/octanol partition coefficient logD (exp.); type: physicochemical; details: for logD: 1-octanol/PBS pH 7.4, determined for (S)-[^18F]9a
Protocol: The lipophilicity of the radioligand (S)-[^18F]9a was assessed by determination of the water/octanol partition coefficients following a published procedure (Prante et al. [2006]). In brief, approximately 20 kBq of (S)-[^18F]9a were mixed with equal amounts (0.5 mL) of PBS (pH 7.4) and 1-octanol and the resulting biphasic system was mixed vigorously for 1 min at rt. The tubes were centrifuged (3000 rpm, 2 min) and 400 μL of the octanol phase were separated and again mixed with equal amounts (400 μL) of PBS. The resulting biphasic system was again mixed vigorously of 1 min at rt. After centrifugation (3000 rpm, 2 min) three samples of 100 μL of each layer were counted in a gamma counter (Wallac Wizard, Perkin-Elmer Life Science). The partition coefficient was determined by calculating the ratio cpm(octanol)/cpm(PBS) and expressed as logD (exp.) (log(cpmoctanol/cpmPBS)). Two independent experiments were performed in triplicate and data were provided as mean values ± standard deviation.
Radiosynthesis of the ^18F-labelled counterpart (S)-[^18F]9a was accomplished via direct nucleophilic substitution reaction of the tosylate precursor (S)-9b by [^18F]fluoride according to the synthesis described for [^18F]FEtO-CGS 25966 (Wagner et al. [2011]). The radiosynthesis provided (S)-[^18F]9a with radiochemical yields of 31–46% (n = 3), radiochemical purities of > 97% in 95–110 min from the end of radionuclide production and molar activities of 2.8–3.4 GBq/μmol after radiosynthesis. The experimental logD value of the radioligand was determined in phosphate-buffered saline (PBS) as already described (Prante et al. [2006]).

[6] = set-up: method as in Wagner et al., [2011]; details: ref Wagner et al., [2011], cited from earlier work
[7] = small animal PET in vivo biodistribution after intravenous injection; set-up: species or system C57/BL6 mice
Protocol: Adult C57/BL6 mice (male, 21–23 g) were anesthetized by isoflurane/O2, and one lateral tail vein was cannulated using a 27 Ga needle connected to 15 cm polyethylene catheter tubing. (S)-[^18F]9a (500 kBq/g bodyweight) was injected as a bolus (50 μL of compound flushed with 100 μL of saline) via the tail vein, and subsequent PET scanning was performed.
PET experiments were carried out using a sub-millimeter high resolution (0.7 mm full width at half maximum) small animal scanner (32 module quadHIDAC, Oxford Positron Systems Ltd., Oxford, UK) with uniform spatial resolution (< 1 mm) over a large cylindrical field (165 mm diameter, 280 mm axial length) (Schäfers et al. [2005]).
List-mode data were acquired for 120 min and reconstructed into dynamic time frames using an iterative reconstruction algorithm. Subsequently, the scanning bed was transferred to the computed tomography (CT) scanner (Inveon, Siemens Medical Solutions, U.S.) and a CT acquisition with a spatial resolution of 80 μm was performed for each mouse. Reconstructed image data sets were co-registered based on extrinsic markers attached to the multimodal scanning bed and the image analysis software (Inveon Research Workplace 3.0, Siemens Medical Solutions, USA). Three-dimensional volumes of interest (VOIs) were defined over the respective organs in CT data sets, transferred to the co-registered PET data and analyzed quantitatively. Regional uptake was calculated as percentage of injected dose by dividing counts per milliliter in the VOI by total counts in the mouse multiplied by 100 (%ID/mL). Routes of tracer elimination were assessed by VOI segmentation of kidneys and bladder (renal route), and liver, gall bladder, small and large intestine (hepatobiliary route). Total activity for each route was calculated as percentage of injected dose by dividing the total counts in the respective VOI by total counts in the mouse multiplied by 100 (%ID).
Maximum intensity projections (MIPs) of the whole body in vivo biodistribution of tracer-associated radioactivity in an adult C57/Bl6 mouse 0–2, 2–5, 5–10, 20–30 and 80–90 min after intravenous injection of (S)-[^18F]9a are shown in Fig. 3.

[8] = in vivo biostability and metabolism study (radio-HPLC of plasma, urine and tissue homogenates); set-up: species or system OCR (CD1) wild type mice; details: 30 min p.i., mouse
Protocol: Approximately 11.1 MBq (S)-[^18F]9a (in a maximum volume of 200 μL) was injected into three mice each via tail vein injection. The animals were sacrificed at 30 min p.i.. Whole blood was obtained, weighed, and centrifuged at 3000 rpm (3 min) to isolate plasma. Urine was also collected. The muscle, brain, kidneys, and liver were harvested and homogenized in lysis buffer (1% SDS in PBS buffer). An aliquot of each sample (400 μL) was subsequently removed, mixed with 400 μL of acetonitrile and 100 μL of 3% acetic acid in acetonitrile, vigorously mixed, and placed on dry ice for 3 min. After thawing, the samples were centrifuged at 13000 rpm (8 min) to allow for the separation of supernatant from the pellet. The supernatant was then removed and assayed for radioactivity in a PerkinElmer Wizard γ-counter (20 s). The samples were analyzed by HPLC, using a γ-detector (Raytest GmbH/Agilent). HPLC was done on a Phenomenex C18 column (250 mm × 4.6 mm) using a gradient method with acetonitrile and water (both having 0.05% TFA).
An in vivo biostability and metabolism study was performed in three 10-month old female OCR (CD1) wild type mice 30 min p.i.

[9] = Table 1, ref Mac Pherson et al. [1997], Scozzafava et al. 2000, Behrends et al. [2015], read-out: IC50 values MMP-2
[10] = Table 1, ref Mac Pherson et al. [1997], Scozzafava et al. 2000, Behrends et al. [2015], read-out: IC50 values MMP-9
[11] = ref Behrends et al., [2015], read-out: IC50 MMP-2
[12] = ref Behrends et al., [2015], read-out: IC50 MMP-9

Question: Which results are given for `COc1ccc(S(=O)(=O)N(Cc2cccnc2)[C@@H](C(=O)NO)C(C)C)cc1` [(R)-CGS 27023A]?
Answer: IC50 [1, 9]: 20 nM; IC50 [2, 10]: 8 nM

Question: Which IC50 [1, 9] does the source give for `C=C(F)C[C@H](C(=O)NO)N(Cc1cccnc1)S(=O)(=O)c1ccc(OC)cc1` [(R)-2] here?
Answer: The IC50 was 9.3 nM.

Question: And the IC50 [1, 11]?
Answer: Its IC50 is 9.3 ± 2 nM.

Question: What about the IC50 [2, 10] of the same compound?
Answer: The IC50 was 8.3 nM.

Question: What about the IC50 [2, 12] of the same compound?
Answer: The IC50 was 8.3 ± 0.1 nM.

Question: Which results are given for `C=C(F)C[C@H](C(=O)NO)N(Cc1ccccc1)S(=O)(=O)c1ccc(OCCF)cc1` [(R)-9a]?
Answer: IC50 [3]: 10.4 ± 5.9 nM; IC50 [4]: 0.5 ± 0.3 nM

Question: For `C=C(F)C[C@@H](C(=O)NO)N(Cc1ccccc1)S(=O)(=O)c1ccc(OCCF)cc1` [(S)-9a, (S)-2-[N-Benzyl-4-(2-fluoroethoxy)phenylsulfonamido]-4-fluoro-N-hydroxypent-4-enamide], which IC50 [3] is on record?
Answer: The IC50 was 0.3 ± 0.03 nM.

Question: What about the logD [5] of the same compound?
Answer: The logD was 1.16 ± 0.2.

Question: What about the IC50 [4] of the same compound?
Answer: Its IC50 is 0.1 ± 0.01 nM.

Question: What does the source list for `C=C(F)C[C@@H](C(=O)NO)N(Cc1cccnc1)S(=O)(=O)c1ccc(OC)cc1` [(S)-2]?
Answer: IC50 [1, 9]: 7.2 nM; IC50 [1, 11]: 7.2 ± 0.1 nM; IC50 [2, 10]: 4.9 nM; IC50 [2, 12]: 4.9 ± 0.4 nM

Question: With `COc1ccc(S(=O)(=O)N(Cc2cccnc2)[C@@H](CCF)C(=O)NO)cc1` [(S)-1] as the compound, how does the IC50 [1, 9] read?
Answer: The IC50 was 32.8 nM.

Question: What about the IC50 [2, 10] of the same compound?
Answer: The IC50 was 3 nM.

Question: With `COc1ccc(S(=O)(=O)N(Cc2cccnc2)[C@H](CCF)C(=O)NO)cc1` [(R)-1] as the compound, how does the IC50 [1, 9] read?
Answer: The IC50 was 6.4 nM.

Question: What about the IC50 [2, 10] of the same compound?
Answer: The IC50 was 12.3 nM.

Question: For `CC(C)[C@H](C(=O)NO)N(Cc1ccccc1)S(=O)(=O)c1ccc(OCCF)cc1` [(R)-FEtO- CGS 25966], which “logD (exp.)” value [6] is on record?
Answer: The value was 2.02 ± 0.03.

Question: What about the “logD (exp.)” value ([6]; listed as the analog derived from CGS 25966) of the same compound?
Answer: Its value is 2.0.

Question: What about the IC50 ([1]; ref Wagner et al., [2011], read-out: IC50 MMP-2) of the same compound?
Answer: Its IC50 is 4 ± 3 nM.

Question: And the IC50 ([2]; ref Wagner et al., [2011], read-out: IC50 MMP-9)?
Answer: Its IC50 is 50 ± 27 nM.

Question: For `C=C(F)C[C@@H](C(=O)NO)N(Cc1ccccc1)S(=O)(=O)c1ccc(OCC[18F])cc1` [(S)-[^18F]9a, (S)-2-[N-Benzyl-4-(2-[^18F]fluoroethoxy)phenylsulfonamido]-4-fluoro-N-hydroxypent-4-enamide], which “tracer remaining in non-excretion organs” value ([7]; 80–90 min p.i., mouse, i.v.) is on record?
Answer: Its value is “no significant tracer remaining”.

Question: What about the “injected tracer activity cleared from the blood and tissues” value ([7]; 90 min post injection) of the same compound?
Answer: Its value is 73%.

Question: What about the “defluorination in vivo (bone uptake of [^18F]fluoride ions)” value ([7]; entire dynamic imaging study, mouse) of the same compound?
Answer: The value was “not observed”.

Question: What about the “accumulation in brain, myocardium, lung and muscles (unspecific binding)” value ([7]; mouse, i.v., PET) of the same compound?
Answer: The value was “not observed”.

Question: What about the “clearance of tracer and metabolites by renal excretion” value ([7]; mouse, i.v., PET) of the same compound?
Answer: The value was 8%.

Question: And the “clearance of tracer and metabolites through the liver and the gallbladder” value ([7]; mouse, i.v., PET)?
Answer: The value was 92%.

Question: And the “extent of metabolism in plasma (into four metabolites)” value [8]?
Answer: The value was “about 92%”.

Question: What about the “extent of metabolism in plasma, kidneys, urine, muscle and brain” value [8] of the same compound?
Answer: Its value is “about 90%”.

Question: What about the “share of radioactivity in brain” value ([8]; radio-HPLC) of the same compound?
Answer: Its value is 12 % HPLC.

Question: And the “share of radioactivity in kidney” value ([8]; radio-HPLC)?
Answer: Its value is 17 % HPLC.

Question: What about the “share of radioactivity in liver” value ([8]; radio-HPLC) of the same compound?
Answer: Its value is 1 % HPLC.

Question: What about the “share of radioactivity in muscle” value ([8]; radio-HPLC) of the same compound?
Answer: Its value is 17 % HPLC.

Question: And the “share of radioactivity in plasma” value ([8]; radio-HPLC)?
Answer: Its value is 8 % HPLC.

Question: And the “metabolism of the parent compound in urine” value ([8]; to four polar metabolites)?
Answer: The value was “complete metabolism”.

Question: What about the logD [5] of the same compound?
Answer: The logD was 1.16.

Question: And the “hydrophilicity in comparison to [^18F]FEtO-CGS25966” value ([5]; from experimental logD values)?
Answer: Its value is 7 times.
